Laboratory results reported in PubChem BioAssay (NCI).
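Assay format: 96-well plates, 48-hour exposure. GI50 = concentration required for 50% inhibition of growth. The concentration for full growth arrest is given as TGI.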

What was measured:
Assay in all cases: inhibition of tumour cell growth, NCI panel, 48 h
786-0 renal = tested on: 786-0 renal
A498 renal = tested on: A498 renal
A549 NSCLC = tested on: A549 NSCLC
ACHN renal = tested on: ACHN renal
BT-549 breast = tested on: BT-549 breast
CAKI-1 renal = tested on: CAKI-1 renal
CCRF-CEM leukemia = tested on: CCRF-CEM leukemia
COLO 205 colon = tested on: COLO 205 colon
DU-145 prostate = tested on: DU-145 prostate
EKVX NSCLC = tested on: EKVX NSCLC
HCC-2998 colon = tested on: HCC-2998 colon
HCT-116 colon = tested on: HCT-116 colon
HCT-15 colon = tested on: HCT-15 colon
HL-60(TB) leukemia = tested on: HL-60(TB) leukemia
HOP-62 NSCLC = tested on: HOP-62 NSCLC
HOP-92 NSCLC = tested on: HOP-92 NSCLC
HS 578T breast = tested on: HS 578T breast
HT29 colon = tested on: HT29 colon
IGROV1 ovarian = tested on: IGROV1 ovarian
K-562 leukemia = tested on: K-562 leukemia
KM12 colon = tested on: KM12 colon
LOX IMVI melanoma = tested on: LOX IMVI melanoma
M14 melanoma = tested on: M14 melanoma
MALME-3M melanoma = tested on: MALME-3M melanoma
MCF7 breast = tested on: MCF7 breast
MDA-MB-231 breast = tested on: MDA-MB-231 breast
MDA-MB-435 = tested on: MDA-MB-435
MOLT-4 leukemia = tested on: MOLT-4 leukemia
NCI-H226 lung = tested on: NCI-H226 lung
NCI-H23 lung = tested on: NCI-H23 lung
NCI-H460 lung = tested on: NCI-H460 lung
NCI-H522 lung = tested on: NCI-H522 lung
NCI/ADR-RES ovarian = tested on: NCI/ADR-RES ovarian
OVCAR-3 ovarian = tested on: OVCAR-3 ovarian
OVCAR-4 ovarian = tested on: OVCAR-4 ovarian
OVCAR-5 ovarian = tested on: OVCAR-5 ovarian
OVCAR-8 ovarian = tested on: OVCAR-8 ovarian
PC-3 prostate = tested on: PC-3 prostate
RPMI-8226 leukemia = tested on: RPMI-8226 leukemia
RXF 393 renal = tested on: RXF 393 renal
SF-268 CNS = tested on: SF-268 CNS
SF-295 CNS = tested on: SF-295 CNS
SF-539 CNS = tested on: SF-539 CNS
SK-MEL-2 melanoma = tested on: SK-MEL-2 melanoma
SK-MEL-28 melanoma = tested on: SK-MEL-28 melanoma
SK-MEL-5 melanoma = tested on: SK-MEL-5 melanoma
SK-OV-3 ovarian = tested on: SK-OV-3 ovarian
SN12C renal = tested on: SN12C renal
SNB-19 CNS = tested on: SNB-19 CNS
SNB-75 CNS = tested on: SNB-75 CNS
SR leukemia = tested on: SR leukemia
SW-620 colon = tested on: SW-620 colon
T-47D breast = tested on: T-47D breast
TK-10 renal = tested on: TK-10 renal
U251 CNS = tested on: U251 CNS
UACC-257 melanoma = tested on: UACC-257 melanoma
UACC-62 melanoma = tested on: UACC-62 melanoma
UO-31 renal = tested on: UO-31 renal

Cn1ccnc1C(=O)/C=C/c1ccc(C(=O)Nc2ccc(F)cc2)cc1
GI50 (786-0 renal): 1.14 µM
TGI (786-0 renal): 3.14 µM
GI50 (A498 renal): 1.05 µM
TGI (A498 renal): 3.53 µM
GI50 (A549 NSCLC): 1.41 µM
TGI (A549 NSCLC): > 50 µM
GI50 (ACHN renal): 1.01 µM
TGI (ACHN renal): 2.11 µM
GI50 (BT-549 breast): 0.667 µM
TGI (BT-549 breast): 4.22 µM
GI50 (CAKI-1 renal): 1.07 µM
TGI (CAKI-1 renal): > 50 µM
GI50 (CCRF-CEM leukemia): 0.853 µM
TGI (CCRF-CEM leukemia): > 50 µM
GI50 (COLO 205 colon): 1.47 µM
TGI (COLO 205 colon): 5.42 µM
GI50 (DU-145 prostate): 1.61 µM
TGI (DU-145 prostate): > 50 µM
GI50 (EKVX NSCLC): 2.2 µM
TGI (EKVX NSCLC): 20.8 µM
GI50 (HCC-2998 colon): 0.915 µM
TGI (HCC-2998 colon): 2 µM
GI50 (HCT-116 colon): 0.343 µM
TGI (HCT-116 colon): 1.12 µM
GI50 (HCT-15 colon): 0.274 µM
TGI (HCT-15 colon): 2.5 µM
GI50 (HL-60(TB) leukemia): 0.933 µM
TGI (HL-60(TB) leukemia): 3.12 µM
GI50 (HOP-62 NSCLC): 1.38 µM
TGI (HOP-62 NSCLC): > 16.4 µM
GI50 (HOP-92 NSCLC): 1.31 µM
TGI (HOP-92 NSCLC): > 41 µM
GI50 (HS 578T breast): 1.66 µM
TGI (HS 578T breast): > 50 µM
GI50 (HT29 colon): 0.877 µM
TGI (HT29 colon): > 50 µM
GI50 (IGROV1 ovarian): 1.24 µM
TGI (IGROV1 ovarian): 4.44 µM
GI50 (K-562 leukemia): 0.163 µM
TGI (K-562 leukemia): > 50 µM
GI50 (KM12 colon): 0.481 µM
TGI (KM12 colon): 2 µM
GI50 (LOX IMVI melanoma): 0.52 µM
TGI (LOX IMVI melanoma): 1.35 µM
GI50 (M14 melanoma): 1.16 µM
TGI (M14 melanoma): 3.81 µM
GI50 (MALME-3M melanoma): 3.27 µM
TGI (MALME-3M melanoma): > 50 µM
GI50 (MCF7 breast): 0.472 µM
TGI (MCF7 breast): > 50 µM
GI50 (MDA-MB-231 breast): 1.71 µM
TGI (MDA-MB-231 breast): > 50 µM
GI50 (MDA-MB-435): 1.59 µM
TGI (MDA-MB-435): 11 µM
GI50 (MOLT-4 leukemia): 1.48 µM
TGI (MOLT-4 leukemia): > 50 µM
GI50 (NCI-H226 lung): 1.51 µM
TGI (NCI-H226 lung): > 12.4 µM
GI50 (NCI-H23 lung): 1.3 µM
TGI (NCI-H23 lung): 5.36 µM
GI50 (NCI-H460 lung): 1.06 µM
TGI (NCI-H460 lung): 2.66 µM
GI50 (NCI-H522 lung): 1.17 µM
TGI (NCI-H522 lung): 4.7 µM
GI50 (NCI/ADR-RES ovarian): 1.25 µM
TGI (NCI/ADR-RES ovarian): > 50 µM
GI50 (OVCAR-3 ovarian): 0.812 µM
TGI (OVCAR-3 ovarian): 4.28 µM
GI50 (OVCAR-4 ovarian): 1.38 µM
TGI (OVCAR-4 ovarian): > 50 µM
GI50 (OVCAR-5 ovarian): 1.54 µM
TGI (OVCAR-5 ovarian): 26.5 µM
GI50 (OVCAR-8 ovarian): 1.49 µM
TGI (OVCAR-8 ovarian): > 50 µM
GI50 (PC-3 prostate): 1.25 µM
TGI (PC-3 prostate): > 50 µM
GI50 (RPMI-8226 leukemia): 0.224 µM
TGI (RPMI-8226 leukemia): 1.54 µM
GI50 (RXF 393 renal): 0.78 µM
TGI (RXF 393 renal): 1.64 µM
GI50 (SF-268 CNS): 1.91 µM
TGI (SF-268 CNS): > 50 µM
GI50 (SF-295 CNS): 1.82 µM
TGI (SF-295 CNS): > 37.1 µM
GI50 (SF-539 CNS): 0.851 µM
TGI (SF-539 CNS): 1.79 µM
GI50 (SK-MEL-2 melanoma): 5.66 µM
TGI (SK-MEL-2 melanoma): 39.7 µM
GI50 (SK-MEL-28 melanoma): 1.8 µM
TGI (SK-MEL-28 melanoma): 9.65 µM
GI50 (SK-MEL-5 melanoma): 1.49 µM
TGI (SK-MEL-5 melanoma): 4.63 µM
GI50 (SK-OV-3 ovarian): 2.55 µM
TGI (SK-OV-3 ovarian): > 50 µM
GI50 (SN12C renal): 1.37 µM
TGI (SN12C renal): > 50 µM
GI50 (SNB-19 CNS): 1.36 µM
TGI (SNB-19 CNS): 6.31 µM
GI50 (SNB-75 CNS): 0.919 µM
TGI (SNB-75 CNS): 16.8 µM
GI50 (SR leukemia): 0.171 µM
TGI (SR leukemia): 3.11 µM
GI50 (SW-620 colon): 0.223 µM
TGI (SW-620 colon): 7.97 µM
GI50 (T-47D breast): 1.24 µM
TGI (T-47D breast): > 50 µM
GI50 (TK-10 renal): 1.51 µM
TGI (TK-10 renal): 7.49 µM
GI50 (U251 CNS): 0.747 µM
TGI (U251 CNS): 2.71 µM
GI50 (UACC-257 melanoma): 3.14 µM
TGI (UACC-257 melanoma): > 50 µM
GI50 (UACC-62 melanoma): 1.37 µM
TGI (UACC-62 melanoma): 4.86 µM
GI50 (UO-31 renal): 0.814 µM
TGI (UO-31 renal): 2.69 µM

CCOC(=O)/C=C(\C)Sc1cc(O)c2ccccc2c1O
TGI (786-0 renal): 44.2 µM
TGI (A498 renal): 41.1 µM
TGI (A549 NSCLC): 85.9 µM
TGI (ACHN renal): 29.7 µM
TGI (BT-549 breast): 40.9 µM
TGI (CAKI-1 renal): 46.8 µM
TGI (CCRF-CEM leukemia): > 100 µM
TGI (COLO 205 colon): 35.1 µM
TGI (DU-145 prostate): > 100 µM
TGI (EKVX NSCLC): 81.9 µM
TGI (HCC-2998 colon): 28.1 µM
TGI (HCT-116 colon): > 100 µM
TGI (HCT-15 colon): 37.8 µM
TGI (HL-60(TB) leukemia): 88.7 µM
TGI (HOP-62 NSCLC): 39.8 µM
TGI (HOP-92 NSCLC): 62.4 µM
TGI (HS 578T breast): > 100 µM
TGI (HT29 colon): 42.9 µM
TGI (IGROV1 ovarian): 27.7 µM
TGI (K-562 leukemia): > 100 µM
TGI (KM12 colon): 75.4 µM
TGI (LOX IMVI melanoma): 92.2 µM
TGI (M14 melanoma): 52.5 µM
TGI (MALME-3M melanoma): 29.1 µM
TGI (MCF7 breast): 65.6 µM
TGI (MDA-MB-231 breast): 44.2 µM
TGI (MDA-MB-435): 5.8 µM
TGI (MOLT-4 leukemia): > 100 µM
TGI (NCI-H226 lung): 61.3 µM
TGI (NCI-H23 lung): > 100 µM
TGI (NCI-H460 lung): 44.6 µM
TGI (NCI-H522 lung): 24.9 µM
TGI (NCI/ADR-RES ovarian): 86.7 µM
TGI (OVCAR-3 ovarian): > 100 µM
TGI (OVCAR-4 ovarian): 32 µM
TGI (OVCAR-5 ovarian): 54.3 µM
TGI (OVCAR-8 ovarian): 42.4 µM
TGI (PC-3 prostate): 67.2 µM
TGI (RPMI-8226 leukemia): > 100 µM
TGI (RXF 393 renal): 31.9 µM
TGI (SF-268 CNS): 25 µM
TGI (SF-295 CNS): 51.6 µM
TGI (SF-539 CNS): 45 µM
TGI (SK-MEL-2 melanoma): 50.5 µM
TGI (SK-MEL-28 melanoma): 30.4 µM
TGI (SK-MEL-5 melanoma): 26.6 µM
TGI (SK-OV-3 ovarian): 66.4 µM
TGI (SN12C renal): 83.5 µM
TGI (SNB-19 CNS): 34.1 µM
TGI (SNB-75 CNS): 23.8 µM
TGI (SR leukemia): > 100 µM
TGI (SW-620 colon): > 100 µM
TGI (T-47D breast): 9.9 µM
TGI (TK-10 renal): 53.8 µM
TGI (U251 CNS): 40.9 µM
TGI (UACC-257 melanoma): 35.6 µM
TGI (UACC-62 melanoma): 60.1 µM
TGI (UO-31 renal): 18.9 µM
